# Laboratory results published in article PMC12375005 (Communications Biology, 2025).
# Tested on: TcCCE34
# Experiment: inhibition of alpha-naphthyl acetate hydrolysis
# Type: biochemical, Tetranychus cinnabarinus
# Conditions: 3 × 10^−4 mol/L alpha-naphthyl acetate; 10 min preincubation 30 °C; 5% acetone
row,SMILES,IC50 [µM]
1,CCOP(=S)(OCC)Oc1nc(Cl)c(Cl)cc1Cl [chlorpyrifos],57.2 ± 7.42
2,CC1(C)C(C(=O)OC(C#N)c2cccc(Oc3ccccc3)c2)C1(C)C (stereo not drawn) [fenpropathrin],42.5 ± 8.44
3,COCCOC(=O)C(C#N)(C(=O)c1ccccc1C(F)(F)F)c1ccc(C(C)(C)C)cc1 (stereo not drawn) [cyflumetofen],630 ± 39.8

# Target: T1, TcGSTm8 (Tetranychus cinnabarinus, UniProt U5YE47)
# T1 sequence (U5YE47 1-227): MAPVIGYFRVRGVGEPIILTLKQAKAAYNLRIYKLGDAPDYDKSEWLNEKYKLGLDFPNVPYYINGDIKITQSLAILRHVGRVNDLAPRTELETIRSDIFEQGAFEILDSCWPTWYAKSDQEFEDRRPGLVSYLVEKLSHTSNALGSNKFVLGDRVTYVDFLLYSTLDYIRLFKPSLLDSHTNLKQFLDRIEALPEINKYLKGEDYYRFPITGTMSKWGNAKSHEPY
# Experiment: inhibition of CDNB conjugation
# Type: biochemical
# Conditions: 6 mM GSH; 0.6 mM CDNB; 10 min preincubation 25 °C; 5% acetone
row,SMILES,IC50 [µM]
1,CCOP(=S)(OCC)Oc1nc(Cl)c(Cl)cc1Cl [chlorpyrifos],1180 ± 90
2,CC1(C)C(C(=O)OC(C#N)c2cccc(Oc3ccccc3)c2)C1(C)C (stereo not drawn) [fenpropathrin],1090 ± 50
3,COCCOC(=O)C(C#N)(C(=O)c1ccccc1C(F)(F)F)c1ccc(C(C)(C)C)cc1 (stereo not drawn) [cyflumetofen],1570 ± 110
